Data as given in the supplement of paper PMC10307832.

Tests used:
Assay in all cases: relative viability (nuclei count vs DMSO), 5 days (fraction); higher = more cells survive
201T = system: 201T
Procedure, shortened: (§1)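 Relative viability divides the nuclei count in treated wells by that in vehicle wells. Lung cancer cell lines were seeded in 1536-well plates, dosed by pin tool the next day, and fixed and stained after 5 days in one step with final 0.05% Triton X-100, 1% formaldehyde and 1 ug/ml Hoechst. Dosing was a single drug or a fixed anchor-drug dose plus five library-drug doses (not always all listed) in √10 steps, and values are medians of duplicate plates imaged at 4×.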

A-427 = system: A-427
Procedure, shortened: as §1

BEN = system: BEN
Procedure, shortened: as §1

COR-L23 = system: COR-L23
Procedure, shortened: as §1

EKVX = system: EKVX
Procedure, shortened: as §1

HARA = system: HARA
Procedure, shortened: as §1

HCC-15 = system: HCC-15
Procedure, shortened: as §1

HCC-44 = system: HCC-44
Procedure, shortened: as §1

HCC-827 = system: HCC-827
Procedure, shortened: as §1

NCI-H1437 = system: NCI-H1437
Procedure, shortened: as §1

NCI-H1650 = system: NCI-H1650
Procedure, shortened: as §1

NCI-H1666 = system: NCI-H1666
Procedure, shortened: as §1

NCI-H1792 = system: NCI-H1792
Procedure, shortened: as §1

NCI-H1975 = system: NCI-H1975
Procedure, shortened: as §1

NCI-H23 = system: NCI-H23
Procedure, shortened: as §1

NCI-H441 = system: NCI-H441
Procedure, shortened: as §1

NCI-H596 = system: NCI-H596
Procedure, shortened: as §1

NCI-H838 = system: NCI-H838
Procedure, shortened: as §1

SK-MES-1 = system: SK-MES-1
Procedure, shortened: as §1

COc1nc(C)cnc1NS(=O)(=O)c1cccnc1-c1ccc(-c2nnco2)cc1 [Zibotentan] + CC1(C)CCC(c2ccc(Cl)cc2)=C(CN2CCN(c3ccc(C(=O)NS(=O)(=O)c4ccc(N[C@H](CCN5CCOCC5)CSc5ccccc5)c(S(=O)(=O)C(F)(F)F)c4)cc3)CC2)C1 [Navitoclax] (partner 0.5 µM) was tested, and the relative viability (201T; first compound 0.08 µM) was 1.23, the relative viability (201T; first compound 0.253 µM) was 1.21 and the relative viability (201T; first compound 0.8 µM) was 1.23. The relative viability (201T; first compound 2.53 µM) was 1.21, the relative viability (A-427; first compound 0.08 µM) was 0.943 and the relative viability (A-427; first compound 0.253 µM) was 0.978. For the same molecule, the relative viability (A-427; first compound 0.8 µM) was 0.978, the relative viability (A-427; first compound 2.53 µM) was 0.995 and the relative viability (BEN; first compound 0.08 µM) was 0.0813. For the same molecule, the relative viability (BEN; first compound 0.253 µM) was 0.0646, the relative viability (BEN; first compound 0.8 µM) was 0.059 and the relative viability (BEN; first compound 2.53 µM) was 0.0664. For the same molecule, the relative viability (COR-L23; first compound 0.08 µM) was 1.03, the relative viability (COR-L23; first compound 0.253 µM) was 1.08 and the relative viability (COR-L23; first compound 0.8 µM) was 1.07. For the same molecule, the relative viability (COR-L23; first compound 2.53 µM) was 1.01, the relative viability (EKVX; first compound 0.08 µM) was 0.938 and the relative viability (EKVX; first compound 0.253 µM) was 1. It also gave a relative viability (EKVX; first compound 0.8 µM) of 0.943, a relative viability (EKVX; first compound 2.53 µM) of 1.06 and a relative viability (HARA; first compound 0.08 µM) of 1.2. It also gave a relative viability (HARA; first compound 0.253 µM) of 1.12, a relative viability (HARA; first compound 0.8 µM) of 1.11 and a relative viability (HARA; first compound 2.53 µM) of 1.11. The relative viability (HCC-15; first compound 0.08 µM) was 0.648, the relative viability (HCC-15; first compound 0.253 µM) was 0.656 and the relative viability (HCC-15; first compound 0.8 µM) was 0.765. For the same molecule, the relative viability (HCC-15; first compound 2.53 µM) was 0.698, the relative viability (HCC-44; first compound 0.08 µM) was 1.24 and the relative viability (HCC-44; first compound 0.253 µM) was 0.887. It also gave a relative viability (HCC-44; first compound 0.8 µM) of 0.99, a relative viability (HCC-44; first compound 2.53 µM) of 1.04 and a relative viability (HCC-827; first compound 0.08 µM) of 1.01. The relative viability (HCC-827; first compound 0.253 µM) was 1, the relative viability (HCC-827; first compound 0.8 µM) was 1.02 and the relative viability (HCC-827; first compound 2.53 µM) was 1.02. It also gave a relative viability (NCI-H1437; first compound 0.08 µM) of 1.12, a relative viability (NCI-H1437; first compound 0.253 µM) of 1.04 and a relative viability (NCI-H1437; first compound 0.8 µM) of 1.07. It also gave a relative viability (NCI-H1437; first compound 2.53 µM) of 1.17, a relative viability (NCI-H1650; first compound 0.08 µM) of 1.26 and a relative viability (NCI-H1650; first compound 0.8 µM) of 1.36. The relative viability (NCI-H1650; first compound 2.53 µM) was 1.09, the relative viability (NCI-H1666; first compound 0.08 µM) was 0.878 and the relative viability (NCI-H1666; first compound 0.253 µM) was 0.785. The relative viability (NCI-H1666; first compound 0.8 µM) was 0.767, the relative viability (NCI-H1666; first compound 2.53 µM) was 1.01 and the relative viability (NCI-H1792; first compound 0.08 µM) was 0.597. For the same molecule, the relative viability (NCI-H1792; first compound 0.253 µM) was 0.605, the relative viability (NCI-H1792; first compound 0.8 µM) was 0.588 and the relative viability (NCI-H1792; first compound 2.53 µM) was 0.604. It also gave a relative viability (NCI-H1975; first compound 0.08 µM) of 1.13, a relative viability (NCI-H1975; first compound 0.253 µM) of 1.05 and a relative viability (NCI-H1975; first compound 0.8 µM) of 1.05. It also gave a relative viability (NCI-H1975; first compound 2.53 µM) of 1.02, a relative viability (NCI-H23; first compound 0.08 µM) of 0.906 and a relative viability (NCI-H23; first compound 0.253 µM) of 0.773. It also gave a relative viability (NCI-H23; first compound 0.8 µM) of 0.872, a relative viability (NCI-H23; first compound 2.53 µM) of 0.853 and a relative viability (NCI-H441; first compound 0.08 µM) of 0.635. It also gave a relative viability (NCI-H441; first compound 0.8 µM) of 0.794, a relative viability (NCI-H441; first compound 2.53 µM) of 0.877 and a relative viability (NCI-H596; first compound 0.08 µM) of 1.19. The relative viability (NCI-H596; first compound 0.253 µM) was 0.896, the relative viability (NCI-H596; first compound 0.8 µM) was 0.958 and the relative viability (NCI-H596; first compound 2.53 µM) was 1.05. It also gave a relative viability (NCI-H838; first compound 0.08 µM) of 1.15, a relative viability (NCI-H838; first compound 0.253 µM) of 1.1 and a relative viability (NCI-H838; first compound 0.8 µM) of 1.18. For the same molecule, the relative viability (NCI-H838; first compound 2.53 µM) was 1.24, the relative viability (SK-MES-1; first compound 0.08 µM) was 1.32 and the relative viability (SK-MES-1; first compound 0.253 µM) was 1.14. It also gave a relative viability (SK-MES-1; first compound 0.8 µM) of 1.21 and a relative viability (SK-MES-1; first compound 2.53 µM) of 1.29.
